Data reported in PubChem BioAssay (NCI).
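Cells were grown in 96-well plates and exposed to each compound for 48 hours at five concentrations; endpoints were interpolated linearly between bracketing concentrations, or set to the highest concentration if not reached. The concentration for 50% growth inhibition is given as GI50. TGI: total growth inhibition.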

What was measured:
Test in all cases: growth of human tumour cells (NCI), 48 h
[1] = system: CAKI-1 renal
[2] = system: MCF7 breast
[3] = system: LOX IMVI melanoma
[4] = system: ACHN renal
[5] = system: SK-MEL-28 melanoma
[6] = system: SK-OV-3 ovarian
[7] = system: T-47D breast
[8] = system: SNB-19 CNS
[9] = system: OVCAR-3 ovarian
[10] = system: HOP-92 NSCLC

Compound	TGI [1] [µM]	TGI [2] [µM]	TGI [3] [µM]	TGI [4] [µM]	TGI [5] [µM]	TGI [6] [µM]	TGI [7] [µM]	TGI [8] [µM]	GI50 [9] [µM]	TGI [9] [µM]	GI50 [1] [µM]	GI50 [3] [µM]	GI50 [10] [µM]	TGI [10] [µM]	GI50 [4] [µM]	GI50 [5] [µM]	GI50 [6] [µM]	GI50 [8] [µM]	GI50 [7] [µM]	GI50 [2] [µM]
C=C(C)C1Cc2c(cc(OC)c3c(=O)c4cccc(O)c4oc23)O1 (centres undefined)	30.2	17.4	29.6	32.1	72	33.7	40	98.4												
[Cl][Sn]([Cl])([c]1ccccc1)[c]1ccccc1	6.52		17.1	27.5	6.53	31.6		27.7	13.4	26.2	2.29	4.51	3.02	6.36	14.4	2.43	17.4	14.6		
CCN(CC)CCCn1cnc2ncccc2c1=O	> 100		> 100	> 100	> 100	> 100		> 100		> 100				> 100						
Cc1noc2cccc(OCc3ccccc3)c12	> 100		> 100	> 100	> 100	> 100		> 100		> 100				> 100						
CCOC(=O)N1C2C=C(C)C(ON2C(=O)c2ccccc2)C2C(C)C(=O)N21 (centres undefined)			> 100	> 100	> 100	> 100		> 100		> 100				> 100						
O=c1cc(-c2ccccc2)oc2cc(O)c(O)c(O)c12	19		> 100	> 100	> 100	> 100	> 100	> 100	16	41.7	4.57	28	3.58	48.7	9.32	92.3	59.6	30	23.7	
COc1ccc2c(c1)C(=O)N1CCOC1C2C(=O)O (centres undefined)	> 100		> 100	> 100	> 100	> 100		> 100		> 100				> 100						
C/C(=N\NC(N)=S)c1cc(C)c(C)cc1C	> 100		> 100	> 100	> 100	> 100				60.3				> 100						
CS(=O)(=O)OCC1OC(n2ccc(NC(=O)c3ccccc3)nc2=O)CC1OS(C)(=O)=O (centres undefined)	> 100	> 100	> 100	> 100	> 100	> 100	> 100	> 100		> 100										
C/C=C/C1=C(Cl)C(=O)[C@@H](Cl)[C@@]1(O)C(=O)OC	8.4	3.89	6.37	6.59	14.2	30.6		19.9		6.94				6.22						
COc1cc2c(cc1OCCCCCOc1cc3c(cc1OC)C(=O)N1CC(F)C[C@H]1C=N3)N=C[C@@H]1CC(F)CN1C2=O (some centres undefined)	0.411	1.31		0.167	8.45	46.5	14	> 100	0.128	0.51	< 0.01				< 0.0169	0.424	0.327	0.376	0.265	< 0.0108
